The source of these data is the Deep4Chem optical property database.

A short description of the data set: solvent given as SMILES.

Consider `CCn1c2ccccc2c2cc(-c3cc(-c4ccc5c(c4)c4ccccc4n5CC)nc(C#N)n3)ccc21`, for which the absorption maximum (in C1CCOC1) is 381 nm; the absorption maximum (in CCOC(C)=O) is on record as 378 nm; the absorption maximum (in CN(C)C=O) came out at 387 nm; the absorption maximum (in Cc1ccccc1) was 380 nm; the absorption maximum (in ClCCl) was found to be 381 nm.
Turning to `C1CCN2CCCn3c2c(c2c3=NCCN=2)C1`, the absorption maximum reads like this: (in CC#N) 370 nm; (in CCCCCC) 352 nm.
For `CC(C)(C)c1ccc(-c2c3c(c(-c4ccc(C(C)(C)C)cc4)c4cc5ccccc5cc24)Cc2c(c(-c4ccc(C(C)(C)C)cc4)c4cc5ccccc5cc4c2-c2ccc(C(C)(C)C)cc2)C3)cc1`, the absorption maximum (in ClCCl) is given as 393 nm.
`CCOC(=O)c1sc(-c2ccc(-c3cc(C4CC4)c(C(=O)OCC)s3)s2)cc1C1CC1` came in with an absorption maximum (in ClCCl) of 395 nm.
As to `COC(=O)C(NC(=O)OC(C)(C)C)c1ccc2oc(-c3cccc(Oc4ccccc4)c3)nc2c1` (configuration not stated), the absorption maximum by setting is: (in CC1CCCCC1) 321 nm; (in CC#N) 305 nm; (in CO) 305 nm.
With `Cc1c2ccc(=[N+]3CCCCC3)cc-2oc2cc(N3CCCCC3)ccc12`, the absorption maximum (in ClCCl) is 555 nm.
On the same count and under the same terms, as for `CCCN1c2ccccc2Sc2cc(C#CC3=C4C=CC=[N+]4[B-](F)(F)n4cccc43)ccc21`, the figure is 540 nm.
As for `CN1C(C(=O)Nc2ccccn2)=C([O-])c2sccc2S1(=O)=O`, the absorption maximum by setting is: (in CC#N) 382 nm; (in CCCCO) 377 nm; (in CCCO) 376 nm; (in CCO) 375 nm; (in CO) 373 nm.
With `COc1ccc2c(CC(=O)NN)coc2c1`, the absorption maximum by setting is: (in C1CCOC1) 290 nm; (in CC#N) 290 nm; (in CC(C)=O) 298 nm; (in CCCCO) 278 nm; (in CCCO) 289 nm; (in CCO) 291 nm. Moreover, the absorption maximum is recorded as 300 nm (in CCOC(C)=O), 288 nm (in CN(C)C=O), 290 nm (in CO) and 287 nm (in ClCCl).
`Cc1ccc(N(c2ccc(C)cc2)c2ccc(-c3cc4c(cc(-c5ccc(N(c6ccc(C)cc6)c6ccc(C)cc6)cc5)c5nsnc54)c4nsnc34)cc2)cc1`: the absorption maximum reads like this: (in Cc1ccccc1) 520 nm; (in ClCCl) 518 nm.
For the setting “in CCOC(C)=O”, `CCN1CCN(c2ccc(/N=N/c3ccc([N+](=O)[O-])cc3)cc2)CC1` displayed an absorption maximum of 448 nm.
In turn, `CC1(C)c2ccccc2N(c2ccc3c(c2)S(=O)(=O)c2cc(N4c5ccccc5C(C)(C)c5ccccc54)ccc2C3(C)C)c2ccccc21` yielded an absorption maximum (in ClCCl) of 282 nm.
For `c1ccc(Nc2nc(Nc3ccccc3)nc(Nc3ccc4c5cccc6cccc(c7cccc3c74)c65)n2)cc1`, the absorption maximum runs as follows: (in C1COCCO1) 444 nm; (in CC#N) 444 nm; (in CCCCOCCCC) 444 nm; (in CCOC(C)=O) 443 nm.
`CC1CC=C(c2ccc(-c3ccc(C#N)s3)s2)CC1` (configuration not stated): the absorption maximum is given as 357 nm (in C1CCOC1); 355 nm (in CC#N); 356 nm (in CCCCCC); 358 nm (in CCO); 366 nm (in OCCOCCO); 363 nm (in c1ccncc1).
Turning to `N#Cc1ccc(-n2c(-c3ccc(-c4ccc(N(c5ccccc5)c5ccccc5)cc4)s3)nc3c4ccccc4c4ccccc4c32)c2ccccc12`, the absorption maximum (in ClCCl) was determined as 308 nm.
As for `Oc1ccc2ccccc2c1-c1nc(-c2ccccc2)c2ccccn12`, the absorption maximum is, setting by setting: (in C1CCCCC1) 361 nm; (in CC#N) 355 nm; (in CO) 343 nm; (in ClCCl) 362 nm; (in O) 355 nm.
Regarding `OC1(c2ccc(-c3cccs3)s2)CCC1`, the absorption maximum is on record as 311 nm (in C1CCOC1); 309 nm (in CC#N); 308 nm (in CCCCCC); 310 nm (in CCO); 314 nm (in OCCOCCO); 316 nm (in c1ccncc1).
Turning to `CN(C)c1ccc(-c2c(/C=C3/C=Cc4ccccc4N3C)c(=O)c2=O)cc1`, the absorption maximum was determined as 358 nm (in C1CCCCC1), 362 nm (in Cc1ccccc1) and 509 nm (in ClCCl).
In turn, `c1ccc(-c2nc(-c3ccccc3)nc(-c3ccc(-n4c5ccc(-c6ccc7sc8ccccc8c7c6)cc5c5cc(-c6ccc7sc8ccccc8c7c6)ccc54)cc3)n2)cc1` came in with an absorption maximum (in Cc1ccccc1) of 377 nm.
For `CC1=CC(C)=[N+]2C1=C(c1c(-c3ccccn3)nc3ccccn13)c1c(C)cc(C)n1[B-]2(F)F`, the absorption maximum (in ClCCl) was 518 nm.
The molecule `CC1(C)c2ccccc2N(c2ccc(-c3nnc(-c4ccc(N5c6ccccc6C(C)(C)c6ccccc65)cc4)o3)cc2)c2ccccc21` showed an absorption maximum (in Cc1ccccc1) of 360 nm.
For `CCC1=C(C)C(=O)n2c1cc1c(CCC(=O)O)c(C)c(C)n1c2=O`, the absorption maximum (in CC#N) is 416 nm; the absorption maximum (in CC(C)=O) is recorded as 415 nm; the absorption maximum (in CO) came to 421 nm; the absorption maximum (in CS(C)=O) came out at 421 nm; the absorption maximum (in ClC(Cl)Cl) was 423 nm; the absorption maximum (in c1ccccc1) turned out to be 419 nm.
The molecule `O=c1ccc2ccc(C#Cc3ccccc3)cc2o1` gave an absorption maximum (in CC#N) of 300 nm.
The molecule `CC(=O)OC[C@H]1O[C@@H](OCC#Cc2ccc(C3=C4C(C)=CC(/C=C/c5ccc([N+](C)(C)C)cc5)=[N+]4[B-](F)(F)n4c(/C=C/c5ccc([N+](C)(C)C)cc5)cc(C)c43)cc2)[C@H](OC(C)=O)C(OC(C)=O)[C@@H]1OC(C)=O` (some centres not stated) came in with an absorption maximum (in CC#N) of 618 nm.
Regarding `Nc1ccc2c(c1)-c1ccccc1C2=O`, the absorption maximum runs as follows: (in C1CCCCC1) 386 nm; (in CC#N) 409 nm; (in CCO) 429 nm; (in c1ccccc1) 395 nm.
For the molecule `COc1ccc(-c2nc(-c3ccccc3)c(N(C)C)[se]2)cc1`, the absorption maximum (in ClC(Cl)Cl) came to 339 nm.
For the molecule `COc1ccc(N(c2ccccc2)c2cc3ccc4cc(N(c5ccccc5)c5ccc(OC)cc5)cc5ccc(c2)c3c45)cc1`, the absorption maximum (in Cc1ccccc1) is recorded as 453 nm.
`Cc1cc(/N=C/c2cc(S(=O)(=O)[O][Na])ccc2O)c(/N=C/c2cc(S(=O)(=O)[O][Na])ccc2O)cc1C` registered an absorption maximum (in O) of 371 nm.
Turning to `COc1ccc(-c2cnc3cccc(-c4ccc(C(C)=O)cc4)n23)cc1`, where the note is “in ClCCl”, the absorption maximum is 366 nm.
On the same count and under the same terms, as for `COCCOCCOCN1C(=O)c2ccc3c(-c4ccccc4)c4c5ccc6c7c(ccc(c(-c8ccccc8)c4c4ccc(c2c34)C1=O)c75)C(=O)N(COCCOCCOC)C6=O`, the figure is 630 nm.
As for `c1ccc(-c2nc(-c3ccc(N4c5ccccc5C(c5ccccc5)(c5ccccc5)c5ccccc54)cc3)cc(-c3ccc(N4c5ccccc5C(c5ccccc5)(c5ccccc5)c5ccccc54)cc3)n2)cc1`, the absorption maximum (in Cc1ccccc1) is recorded as 373 nm.
`CCCCCCCCC1(CCCCCCCC)c2ccccc2-c2ccc(-c3nnc(-c4cccc(-n5c6ccc(C(C)(C)C)cc6c6cc(C(C)(C)C)ccc65)c4)o3)cc21` gave an absorption maximum (in Cc1ccccc1) of 345 nm.
`O=C(c1ccc(N2c3ccccc3Oc3ccccc32)cc1)c1ccc2sc3ccccc3c2c1` gave an absorption maximum (in C1CCOC1) of 312 nm.
Molecule `Cc1ccc(-c2ccc(/C=C/c3ccc(C#N)cc3)cn2)nc1` gave an absorption maximum (in CC#N) of 343 nm.
